In patent publication US10844051B2, “Substituted oxazoles for the treatment of cancer” (THE ROYAL INSTITUTION FOR THE ADCANCEMENT OF …, priority 2015, dated 2020):
Entries after “also recorded” stand apart in the source; their conditions may differ.

Legend:
[1] = biological target: T1, recombinant protein of human GATA2 (Homo sapiens, UniProt P23769); experiment: SPR analysis on amine-coupled GATA2; format: binding; conditions: 50 μM each
T1 sequence (P23769 1-480): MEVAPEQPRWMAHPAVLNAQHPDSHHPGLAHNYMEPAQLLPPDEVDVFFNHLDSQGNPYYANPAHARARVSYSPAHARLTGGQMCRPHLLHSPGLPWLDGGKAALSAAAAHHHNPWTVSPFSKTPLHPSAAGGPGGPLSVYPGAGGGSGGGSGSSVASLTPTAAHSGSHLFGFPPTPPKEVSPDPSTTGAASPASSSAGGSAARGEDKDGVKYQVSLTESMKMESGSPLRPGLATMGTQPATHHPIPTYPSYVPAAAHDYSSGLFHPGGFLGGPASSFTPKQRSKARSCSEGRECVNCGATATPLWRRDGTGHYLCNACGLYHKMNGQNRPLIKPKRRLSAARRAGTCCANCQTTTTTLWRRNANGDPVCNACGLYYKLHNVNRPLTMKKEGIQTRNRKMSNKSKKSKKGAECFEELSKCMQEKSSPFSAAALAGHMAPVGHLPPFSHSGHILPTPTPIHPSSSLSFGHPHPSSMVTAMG
Source text: In embodiments of the invention, the androgen-bound AR is regressing GATA2 expression and inhibition of AR via castration or use of antiandrogen releases such expression. […] Overexpression of GATA2 confers resistance to antiandrogen bicalutamide (Bic) (FIG. 2.9). Compound 673 is effective against the LNCaP stably transfected with GATA2-expressing plasmid (referred to as LNCaP-GATA2 cells) (FIG. 2.8).

[2] = biological target: T2, human STING (hSTING) (Homo sapiens, UniProt Q86WV6); experiment: hSTING ISRE-luc reporter assay in 293T cells; format: cell-based; conditions: 24 hours
T2 construct: expressed in transfected cells; host or cells: 293T
Protocol: ISRE-luc (reporter), pRL-TK (internal control) and hSTING-expressing plasmids were transiently transfected into 293T cells. Cells were exposed to DMSO vehicle control or compounds for 24 hours. Experiments were done in triplicate.

[3] = biological target: T3, ESE-1 (Homo sapiens, UniProt P78545); experiment: ESE-1 dependent reporter assay in HEK293 cells; format: cell-based; conditions: 48 hours
T3 construct: expressed in transfected cells; host or cells: HEK293
T3 sequence (P78545 1-371): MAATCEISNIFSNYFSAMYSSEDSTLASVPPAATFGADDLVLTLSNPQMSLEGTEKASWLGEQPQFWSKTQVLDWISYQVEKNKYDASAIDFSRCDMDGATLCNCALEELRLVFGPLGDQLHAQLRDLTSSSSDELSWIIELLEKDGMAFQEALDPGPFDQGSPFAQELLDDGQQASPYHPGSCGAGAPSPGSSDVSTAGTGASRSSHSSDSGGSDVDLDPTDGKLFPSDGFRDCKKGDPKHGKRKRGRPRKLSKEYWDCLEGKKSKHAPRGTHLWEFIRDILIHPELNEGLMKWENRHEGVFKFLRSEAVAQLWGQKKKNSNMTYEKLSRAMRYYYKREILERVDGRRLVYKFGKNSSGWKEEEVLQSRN
Protocol: (§1) HEK293 cells were transiently transfected with empty vector (for the NT) or ERG-expressing plasmid as well as pRL-TK (internal control) and PUx3-Luc reporter. Cells were then exposed to DMSO vehicle or compounds at designated doses for 48 hours. Experiments were done in triplicate.
Experiments were done as described above in FIG. 1.1a) except that ERG plasmid was replaced by ESE-1 plasmid.

[4] = test system: EZH2, c-Myc and ERG expression in VCaP cells; experiment: Expression of EZH2, c-Myc and ERG in VCaP cells; format: cell-based; conditions: 10 μM, 72 hours
Protocol: VCaP cells were exposed to DMSO vehicle control, 648, 698 and 891 at 10 μM for 72 hours in DMEM medium plus 10% FBS or phenol red-free DMEM medium plus 10% charcoal-stripped FBS (CS-FBS).

[5] = biological target: T4, ERG (Homo sapiens, UniProt P11308); experiment: ERG-dependent reporter assay in HEK293 cells; format: cell-based; set-up: expressed in transfected cells; host or cells: HEK293; conditions: PUx3-Luc reporter, 48 hours, designated doses
T4 sequence (P11308 1-486 isoform P11308-3): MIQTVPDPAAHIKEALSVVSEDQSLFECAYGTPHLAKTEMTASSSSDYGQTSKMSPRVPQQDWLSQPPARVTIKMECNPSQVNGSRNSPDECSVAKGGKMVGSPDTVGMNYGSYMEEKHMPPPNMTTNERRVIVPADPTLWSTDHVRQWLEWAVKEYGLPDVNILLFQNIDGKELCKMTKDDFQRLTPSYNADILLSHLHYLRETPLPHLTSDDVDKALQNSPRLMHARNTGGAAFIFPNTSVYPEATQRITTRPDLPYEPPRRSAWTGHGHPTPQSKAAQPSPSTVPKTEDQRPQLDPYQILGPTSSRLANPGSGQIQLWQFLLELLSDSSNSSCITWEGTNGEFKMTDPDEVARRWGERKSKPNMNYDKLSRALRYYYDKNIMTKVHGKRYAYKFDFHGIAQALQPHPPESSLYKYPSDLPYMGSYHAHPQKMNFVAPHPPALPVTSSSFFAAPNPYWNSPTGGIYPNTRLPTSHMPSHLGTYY
Protocol: as §1

[6] = biological target: T5, human GATA2 (Homo sapiens, UniProt P23769); experiment: GATA2-dependent reporter assay in IHH cells; format: cell-based; conditions: GATA-Luc reporter, 48 h
T5 construct: expressed in transfected cells; host or cells: IHH
T5 sequence (P23769 1-480): T1 sequence (P23769 1-480)
Protocol: K7174 is a known GATA2 inhibitor. The IHH cells were transiently transfected with empty vector (for the NT) or human GATA2-expressing plasmid as well as pRL-TK (internal control) and GATA-Luc reporter plasmids. Cells were exposed to DMSO vehicle or compounds for 48 h. Experiments were in triplicate.

[7] = biological target: T6, human GATA3 (Homo sapiens, UniProt P23771); experiment: GATA3-dependent reporter assay in IHH cells; format: cell-based; conditions: 48 hours, 10 μM
T6 construct: expressed in transfected cells; host or cells: IHH
Protocol: The IHH cells were transiently transfected with empty vector (for the NT) or human GATA3-expressing plasmid as well as pRL-TK (internal control) and GATA-Luc reporter plasmids. Cells were exposed to DMSO vehicle or compounds for 48 hours. Experiments were done in triplicate.

[8] = biological target: T7, recombinant human KRAS 12D mutant protein (Homo sapiens, UniProt P01116, G12D); experiment: SPR analysis on amine-coupled KRAS (G12D mutant); format: binding; conditions: for Kd: PBS-T containing 1 μM GDP, steady-state
T7 construct: purchased ORIGENE TP700052
Protocol: FIG. 4.1 SPR analysis. Left panels, SPR sensorgrams for compounds 784 and 895 binding to 3500 RU amine-coupled KRAS (G12D mutant) at 25 μL/min in PBS-T containing 1 μM GDP. Right panels, corresponding non-linear regression analyses of steady-state binding responses versus concentration to determine apparent equilibrium dissociation constants (KD).
Since activation of KRAS leads to activation of NF-kB,^69 we performed in vitro screening of our compounds by KRAS mutant-dependent NF-kB-luc reporter assay in HEK293 cells. […] Also, compounds of the invention are cytotoxic to PANC 10.05 pancreatic cancer cells, H23 NSCLC cells and HCT-116 colorectal cancer cells (FIG. 4.5).

[9] = test system: phosphorylation of ERK in Panc 10.05 cells; experiment: Western blot, phosphorylation of ERK in Panc 10.05 cells; format: cell-based; conditions: 24 hours
Protocol: (§2) C-PARP, cleaved PARP. Panc10.05 cells were exposed to DMSO vehicle or compounds at designated doses for 24 hours.
Panc10.05 cells were exposed to DMSO vehicle or compounds at designated doses for 24 hours.

[10] = test system: Panc 10.05 cells; experiment: Western blot, apoptosis (cleaved PARP) in Panc 10.05 cells; format: cell-based; conditions: 24 hours
Protocol: as §2

[11] = test system: phosphorylation of ERK in HCT-116 cells; experiment: Western blot, phosphorylation of ERK in HCT-116 cells; format: cell-based; conditions: 10 μM, 24 hours
Protocol: HCT-116 cells were exposed to DMSO vehicle or compounds at designated doses for 24 hours.

[12] = test system: H23 KRAS-mutant NSCLC cells; experiment: MTT assay, H23; format: cell-based; conditions: endogenous KRAS 12C, 72 hours
Protocol: FIG. 2.7 Compound 673 is cytotoxic in KRAS-mutant NSCLC cells (A549 and H23), but is not toxic the KRAS wild-type NSCLC cells (H322). Cells were exposed to vehicle or compounds (μM) for 72 hours. Viable cells were evaluated by MTT assays.
(§3) Panc 10.05, H23 and HCT-116 cells express endogenous KRAS 12D, 12C and 13D mutants, respectively. Cells were exposed to DMSO vehicle or compounds at designated doses for 72 hours. Experiments were done in triplicate.

[13] = test system: Panc10.05 pancreatic cancer cells; experiment: MTT analysis, Panc10.05; format: cell-based; conditions: endogenous KRAS 12D, 72 hours
Protocol: as §3

[14] = test system: HCT-116 colorectal cancer cells; experiment: MTT analysis, HCT-116; format: cell-based; conditions: endogenous KRAS 13D, 72 hours
Protocol: as §3

T7 sequence (P01116 1-188 isoform P01116-2 G12D): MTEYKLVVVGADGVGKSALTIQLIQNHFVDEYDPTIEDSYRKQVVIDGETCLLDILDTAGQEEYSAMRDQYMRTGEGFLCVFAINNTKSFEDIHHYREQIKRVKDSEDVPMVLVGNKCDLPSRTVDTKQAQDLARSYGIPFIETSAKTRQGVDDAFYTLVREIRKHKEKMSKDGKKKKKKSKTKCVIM
T2 sequence (Q86WV6 whole entry H232R): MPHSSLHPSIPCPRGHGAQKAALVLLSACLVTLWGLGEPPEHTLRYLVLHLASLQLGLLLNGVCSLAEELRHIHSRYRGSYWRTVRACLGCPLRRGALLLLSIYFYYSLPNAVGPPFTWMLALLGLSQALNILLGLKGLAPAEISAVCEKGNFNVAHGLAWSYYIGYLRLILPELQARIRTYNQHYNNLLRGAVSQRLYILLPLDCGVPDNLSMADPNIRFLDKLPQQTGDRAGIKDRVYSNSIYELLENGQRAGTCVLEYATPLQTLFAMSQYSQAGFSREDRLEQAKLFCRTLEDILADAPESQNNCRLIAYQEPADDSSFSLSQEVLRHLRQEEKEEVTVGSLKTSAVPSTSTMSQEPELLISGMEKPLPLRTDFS
T6 sequence (P23771 whole entry): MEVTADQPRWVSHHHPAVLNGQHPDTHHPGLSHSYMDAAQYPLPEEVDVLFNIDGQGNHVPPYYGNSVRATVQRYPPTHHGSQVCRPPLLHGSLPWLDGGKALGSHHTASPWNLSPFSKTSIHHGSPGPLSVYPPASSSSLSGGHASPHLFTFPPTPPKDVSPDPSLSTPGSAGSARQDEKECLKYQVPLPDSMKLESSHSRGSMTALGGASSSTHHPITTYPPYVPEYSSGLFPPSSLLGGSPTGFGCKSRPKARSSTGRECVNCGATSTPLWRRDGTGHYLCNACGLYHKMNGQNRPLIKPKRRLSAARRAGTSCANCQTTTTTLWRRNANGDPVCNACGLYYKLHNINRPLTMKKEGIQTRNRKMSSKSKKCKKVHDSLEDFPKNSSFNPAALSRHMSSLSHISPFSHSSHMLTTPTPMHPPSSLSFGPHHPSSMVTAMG

Q: `COc1ccc(-c2nc(CCCc3c[nH]c4ccccc34)oc2-c2ccc(OC)cc2)cc1` [Compound 670] was tested. Which “binding to amine-coupled GATA2 (SPR)” value [1] did it give?
A: Direct binding; also recorded: Specific binding

Q: What about the “activation of hSTING in ISRE-luc reporter assay” value [2] of the same compound?
A: activate human STING (hSTING)

Q: `Oc1ccc(-c2nc(Cc3c[nH]c4ccccc34)oc2-c2ccc(O)cc2)cc1` [Compound 698] was tested. Which “ESE-1 inhibition in ESE-1 dependent reporter assay” value [3] did it give?
A: ESE-1 inhibitors

Q: What about the “inhibition of expression of EZH2, c-Myc and ERG” value [4] of the same compound?
A: inhibit expression of EZH2, c-Myc and ERG

Q: And the “activation of hSTING in ISRE-luc reporter assay” value [2]?
A: activate hSTING

Q: What about the “ERG inhibition in ERG-dependent reporter assay” value [5] of the same compound?
A: ERG inhibitors

Q: Which “GATA2 inhibition in GATA2-dependent reporter assay” value [6] does the source give for `O=C(Cc1c[nH]c2ccccc12)NCc1nc(-c2ccccc2)c(-c2ccccc2)o1` [Compound 784] here?
A: GATA2 inhibitors

Q: What about the “activity against GATA3 in GATA3-dependent reporter assay” value [7] of the same compound?
A: inactive against GATA3

Q: What about the “direct binding with KRAS G12D mutant (SPR)” value [8] of the same compound?
A: Direct binding

Q: And the Kd [8]?
A: 190 µM

Q: And the “suppression of phosphorylation of ERK (Western blot)” value (shortened to “suppression”) ([9]; designated doses)?
A: dose-dependently suppressed phosphorylation of ERK

Q: And the “induction of apoptosis (cleaved PARP, Western blot)” value [10]?
A: induced apoptosis

Q: How did the “inhibition of expression of EZH2, c-Myc and ERG” value [4] turn out when `Oc1ccccc1-c1nc(Cc2c[nH]c3ccccc23)oc1-c1ccccc1O` [Compound 891] was run?
A: inhibit expression of EZH2, c-Myc and ERG

Q: Which results are given for `COc1ccc(CC/C(=C/C(=O)N2CCC(O)(c3ccccc3)CC2)c2ccccc2)cc1F` [Compound 895]?
A: direct binding with KRAS G12D mutant (SPR) [8]: Direct binding; Kd [8]: 45 µM; suppression of phosphorylation of ERK (Western blot) ([9]; designated doses): dose-dependently suppressed phosphorylation of ERK; induction of apoptosis (cleaved PARP, Western blot) [10]: induced apoptosis; suppression of phosphorylation of ERK (Western blot) [11]: potently suppressed phosphorylation of ERK

Q: Which “inhibition of proliferation of H23 cells (MTT)” value [12] does the source give for `N#CCN(CCc1c[nH]c2ccccc12)Cc1nc(-c2cccc(F)c2)c(-c2cccc(F)c2)[nH]1` [Compound 1186] here?
A: dose-dependently inhibit proliferation

Q: And the “suppression” value ([9]; 10 μM)?
A: potently suppressed phosphorylation of ERK

Q: And the “suppression” value [11]?
A: potently suppressed phosphorylation of ERK

Q: And the “inhibition of proliferation of Panc10.05 cells (MTT)” value [13]?
A: dose-dependently inhibit proliferation

Q: What about the “inhibition of proliferation of HCT-116 cells (MTT)” value [14] of the same compound?
A: dose-dependently inhibit proliferation

Q: What does the source list for `COc1ccc(CC/C(=C/C(=O)N2CCN(c3ccccc3OC)CC2)c2ccccc2)cc1F` [Compound 1261]?
A: inhibition of proliferation of H23 cells (MTT) [12]: dose-dependently inhibit proliferation; inhibition of proliferation of Panc10.05 cells (MTT) [13]: dose-dependently inhibit proliferation; inhibition of proliferation of HCT-116 cells (MTT) [14]: dose-dependently inhibit proliferation

Q: Which “ESE-1 inhibition in ESE-1 dependent reporter assay” value [3] does the source give for `Fc1ccccc1CSc1ncnc2c1ncn2C1CCCO1` (stereo not drawn) [Compound V131] here?
A: ESE-1 inhibitors

Q: And the “ERG inhibition in ERG-dependent reporter assay” value [5]?
A: potent inhibitor of ERG; also recorded: ERG inhibitors

Q: How did the “GATA2 inhibition in GATA2-dependent reporter assay” value [6] turn out when `O=C(CC(O)(CCc1ccccc1)c1ccccc1)N1CCC(O)(c2ccccc2)CC1` (stereo not drawn) [Compound V248] was run?
A: GATA2 inhibitors

Q: And the “binding to amine-coupled GATA2 (SPR)” value [1]?
A: Direct binding; also recorded: Specific binding
